The values below come from EP2359816B1, “Aripiprazole formulations” (Arven Ilac Sanayi ve Ticaret A.S., priority 2010, dated 2011).

This data set can be described thus: physchem. Format: physicochemical. The text has this: The following results were obtained in our solubility study of aripiprazole monohydrate.

Broadly, the solubility is how much of the substance goes into solution per volume. Higher therefore signals a readily soluble substance.

Turning to `O=C1CCc2ccc(OCCCCN3CCN(c4cccc(Cl)c4Cl)CC3)cc2N1` [aripiprazole monohydrate, 7-[4-[4-(2,3-dichlorophenyl)-1-piperazinyl]butoxy]-3,4-dihydrocarbostyril], the dissolved is on record as 25 mg per 250 mL (pH 1.2 (0.1 N NCl)), 9.75 mg per 250 mL (pH 1.2 (USP buffer)), 8.25 mg per 250 mL (pH 4.5) and “not dissolved” (pH 6.8). Moreover, the “Cmax (mg/250 mL) (Aripiprazole)” value came to 8.25 mg/250 mL (pH 4.5) and 0 mg/250 mL (pH 6.8). The solubility (pH 4.5, aqueous buffer, Maximum Solubility (Cmax mg/mL)) was 33 µg/mL. The “Maximum Solubility (Cmax mg/mL)” value (pH 6.8) turned out to be 0 mg/mL.
